For assay [1], the target named is T1, BTK enzyme (recombinant full-length BTK, hBTK) (Homo sapiens, UniProt Q06187).
T1 construct: recombinant protein from baculovirus-transfected Sf9 cells: full-length BTK, 6HIS-tag cleaved; 6HIS (cleaved yes); made in house; host or cells: baculovirus-transfected Sf9 cells
As to the kind of experiment: BTK enzyme activity assay, LANCE TR-FRET. Conditions: 50 pM hBTK, 2 μM biotin-A5-peptide, 25 μM ATP; 60 min compound & enzyme incubation; read-out: IC50 BTK activity value. The assay is classed as biochemical. (In TR-FRET formats the signal depends on donor and acceptor labels being close together.)

The subject of the next assay is HeLa cells. As to the kind of experiment: [3H]Adenosine uptake functional cellular assay. The assay is classed as cell-based. Conditions: Homo sapiens, HeLa, accumulation of [3H]adenosine into HeLa cells; compound range 10 μM to […]; read-out: Adenosine uptake inhibition IC50. Summed up: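 Inhibition of adenosine uptake was measured in HeLa cells (ATCC CCL-2) by following accumulation of tritiated adenosine. Cells were kept overnight at 37° C. with 5% (v/v) CO2, then switched to 40 μL HBSS plus 5% (v/v) FBS. 20 μL of 500 nM [3H]adenosine was added, and uptake was counted on a Topcount NXT reader.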

The IC50 is the concentration at which inhibition is half-maximal.

T1 sequence (Q06187 whole entry): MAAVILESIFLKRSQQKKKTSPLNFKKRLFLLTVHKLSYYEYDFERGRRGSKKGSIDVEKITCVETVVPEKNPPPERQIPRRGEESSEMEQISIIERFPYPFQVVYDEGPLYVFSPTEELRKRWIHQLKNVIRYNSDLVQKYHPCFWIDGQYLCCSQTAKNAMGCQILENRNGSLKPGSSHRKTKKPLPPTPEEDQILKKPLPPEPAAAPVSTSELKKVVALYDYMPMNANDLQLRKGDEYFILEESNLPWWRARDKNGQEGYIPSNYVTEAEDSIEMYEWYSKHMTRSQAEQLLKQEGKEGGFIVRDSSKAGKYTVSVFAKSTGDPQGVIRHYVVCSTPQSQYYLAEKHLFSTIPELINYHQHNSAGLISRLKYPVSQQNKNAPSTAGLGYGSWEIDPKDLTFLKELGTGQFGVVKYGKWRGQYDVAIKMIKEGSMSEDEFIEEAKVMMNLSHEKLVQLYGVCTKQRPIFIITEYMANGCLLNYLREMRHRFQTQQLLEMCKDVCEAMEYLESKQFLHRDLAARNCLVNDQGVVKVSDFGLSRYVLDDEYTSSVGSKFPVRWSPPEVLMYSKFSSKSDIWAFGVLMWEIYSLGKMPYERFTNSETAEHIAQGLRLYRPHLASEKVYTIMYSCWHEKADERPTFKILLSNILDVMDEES

In the case of `Cc1cc(C(=O)Nc2cc(C(F)(F)F)ccn2)c(F)cc1-c1nc([C@@H]2CC[C@H]3CCC(=O)N3C2)n2ccnc(N)c12` [Example 198, 4-(8-amino-3-((6R,8aS)-3-oxooctahydroindolizin-6-yl)imidazo[1,5-a]pyrazin-1-yl)-2-fluoro-5-methyl-N-(4-(trifluoromethyl)pyridin-2-yl)benzamide], the IC50 in assay [1] stood at 8.2 nM; in the assay with HeLa cells, 252 nM.

For `CCOCCOc1cc(C(=O)Nc2cc(C(F)(F)F)ccn2)ccc1-c1nc([C@@H]2CC[C@H]3CCC(=O)N3C2)n2ccnc(N)c12` [Example 201, 4-{8-amino-3-[(6R,8aS)-3-oxooctahydroindolizin-6-yl]imidazo[1,5-a]pyrazin-1-yl}-3-(2-ethoxyethoxy)-N-[4-(trifluoromethyl)pyridin-2-yl]benzamide], the figures for the IC50 (in assay [1]; in the assay with HeLa cells) were 3.2 nM and 5890 nM, respectively.

On to `COc1cc(C(=O)Nc2ncc(C)s2)ccc1-c1nc([C@@H]2CC[C@H]3CCC(=O)N3C2)n2ccnc(N)c12` [Example 202, 4-{8-amino-3-[(6R,8aS)-3-oxooctahydroindolizin-6-yl]imidazo[1,5-a]pyrazin-1-yl}-3-methoxy-N-(5-methyl-1,3-thiazol-2-yl)benzamide], for which the IC50 was found to be 5.2 nM in assay [1] and 6880 nM with HeLa cells.

Regarding `COc1cc(C(=O)Nc2ncc(C)s2)ccc1-c1nc([C@@H]2CC[C@H]3CCC(=O)N3C2)n2c(Cl)cnc(N)c12` [Example 203, 4-{8-amino-5-chloro-3-[(6R,8aS)-3-oxooctahydroindolizin-6-yl]imidazo[1,5-a]pyrazin-1-yl}-3-methoxy-N-(5-methyl-1,3-thiazol-2-yl)benzamide], the IC50 in assay [1] was 1.7 nM; with HeLa cells, 1730 nM.

Regarding `C#CCCOc1cc(C(=O)Nc2cc(C(F)(F)F)ccn2)ccc1-c1nc([C@@H]2CC[C@H]3CCC(=O)N3C2)n2ccnc(N)c12` [Example 204, 4-{8-amino-3-[(6R,8aS)-3-oxooctahydroindolizin-6-yl]imidazo[1,5-a]pyrazin-1-yl}-3-(but-3-yn-1-yloxy)-N-[4-(trifluoromethyl)pyridin-2-yl]benzamide], the IC50 is 0.75 nM in assay [1] and 1390 nM in the assay on HeLa cells.

Regarding `CCOc1cc(C(=O)Nc2cc(C(F)(F)F)n(C)n2)ccc1-c1nc([C@@H]2CC[C@H]3CCC(=O)N3C2)n2c(C)cnc(N)c12` [Example 205, 4-{8-amino-5-methyl-3-[(6R,8aS)-3-oxooctahydroindolizin-6-yl]imidazo[1,5-a]pyrazin-1-yl}-3-ethoxy-N-[1-methyl-5-(trifluoromethyl)-1H-pyrazol-3-yl]benzamide], the IC50 is 1.2 nM in assay [1] and 2360 nM with HeLa cells.

Consider `CCOc1cc(C(=O)Nc2cc(C(F)(F)F)ccn2)ccc1-c1nc([C@@H]2CC[C@H]3CCC(=O)N3C2)n2c(C(F)(F)F)cnc(N)c12` [Example 206, 4-{8-amino-3-[(6R,8aS)-3-oxooctahydroindolizin-6-yl]-5-(trifluoromethyl)imidazo [1,5-a]pyrazin-1-yl}-3-ethoxy-N-[4-(trifluoromethyl)pyridin-2-yl]benzamide], for which the values for the IC50 (in assay [1]; in the assay with HeLa cells) were 0.72 nM and 1110 nM, respectively.

Turning to `CCc1ccnc(NC(=O)c2ccc(-c3nc([C@@H]4CC[C@H]5CCC(=O)N5C4)n4c(Cl)cnc(N)c34)c(OC)c2)c1` [Example 207, 4-{8-amino-5-chloro-3-[(6R,8aS)-3-oxooctahydroindolizin-6-yl]imidazo[1,5-a]pyrazin-1-yl}-N-(4-ethylpyridin-2-yl)-3-methoxybenzamide], the IC50 in assay [1] came to 0.58 nM; in the assay with HeLa cells it was 377 nM.

For the compound `COc1ccnc(NC(=O)c2ccc(-c3nc([C@@H]4CC[C@H]5CCC(=O)N5C4)n4c(Cl)cnc(N)c34)c(OC)c2)c1` [Example 208, 4-{8-amino-5-chloro-3-[(6R,8aS)-3-oxooctahydroindolizin-6-yl]imidazo[1,5-a]pyrazin-1-yl}-3-methoxy-N-(4-methoxypyridin-2-yl)benzamide], the IC50 in assay [1] came to 1.6 nM; in the assay with HeLa cells, 386 nM.

Take `COc1cc(C(=O)Nc2cc(C3CCC3)ccn2)ccc1-c1nc([C@@H]2CC[C@H]3CCC(=O)N3C2)n2c(Cl)cnc(N)c12` [Example 209, 4-{8-amino-5-chloro-3-[(6R,8aS)-3-oxooctahydroindolizin-6-yl]imidazo[1,5-a]pyrazin-1-yl}-N-(4-cyclobutylpyridin-2-yl)-3-methoxybenzamide]: the IC50 was found to be 0.41 nM in assay [1] and 582 nM with HeLa cells.

For the compound `COc1cc(C(=O)Nc2ccc(C)cn2)ccc1-c1nc([C@@H]2CC[C@H]3CCC(=O)N3C2)n2c(Cl)cnc(N)c12` [Example 210, 4-{8-amino-5-chloro-3-[(6R,8aS)-3-oxooctahydroindolizin-6-yl]imidazo[1,5-a]pyrazin-1-yl}-3-methoxy-N-(5-methylpyridin-2-yl)benzamide], the IC50 in assay [1] turned out to be 1.4 nM; in the assay with HeLa cells, 1120 nM.

Take `Nc1ncc(C(F)(F)F)n2c([C@@H]3CC[C@H]4CCC(=O)N4C3)nc(-c3ccc(C(=O)Nc4cc(C(F)(F)F)ccn4)cc3Cl)c12` [Example 211, 4-{8-amino-3-[(6R,8aS)-3-oxooctahydroindolizin-6-yl]-5-(trifluoromethyl)imidazo[1,5-a]pyrazin-1-yl}-3-chloro-N-[4-(trifluoromethyl)pyridin-2-yl]benzamide]: the IC50 is 9 nM in assay [1] and 269 nM in the assay on HeLa cells.

Regarding `Nc1ncc(C(F)(F)F)n2c([C@@H]3CC[C@H]4CCC(=O)N4C3)nc(-c3ccc(C(=O)Nc4cc(C5CC5)ccn4)cc3F)c12` [Example 212, 4-{8-amino-3-[(6R,8aS)-3-oxooctahydroindolizin-6-yl]-5-(trifluoromethyl)imidazo [1,5-a]pyrazin-1-yl}-N-(4-cyclopropylpyridin-2-yl)-3-fluorobenzamide], the IC50 was 3.8 nM in assay [1] and 86.9 nM with HeLa cells.

Consider `COc1cc(C(=O)Nc2cc(C(F)(F)F)ccn2)ccc1-c1nc([C@@H]2CC[C@H]3CCC(=O)N3C2)n2c(C(F)(F)F)cnc(N)c12` [Example 213, 4-{8-amino-3-[(6R,8aS)-3-oxooctahydroindolizin-6-yl]-5-(trifluoromethyl)imidazo[1,5-a]pyrazin-1-yl}-3-methoxy-N-[4-(trifluoromethyl)pyridin-2-yl]benzamide], for which the IC50 worked out at 2.7 nM in assay [1] and 699 nM in the assay with HeLa cells.

Regarding `Cc1cc(C(=O)Nc2cc(C(F)(F)F)ccn2)cc(F)c1-c1nc([C@@H]2CC[C@H]3CCC(=O)N3C2)n2ccnc(N)c12` [Example 214, 4-{8-amino-3-[(6R,8aS)-3-oxooctahydroindolizin-6-yl]imidazo[1,5-a]pyrazin-1-yl}-3-fluoro-5-methyl-N-[4-(trifluoromethyl)pyridin-2-yl]benzamide], the IC50 in assay [1] is 2.2 nM; in the assay on HeLa cells it was 517 nM.

With `CCOc1cc(C(=O)Nc2cc(C(F)(F)F)n(C)n2)ccc1-c1nc([C@@H]2CC[C@H]3CCC(=O)N3C2)n2c(C(F)(F)F)cnc(N)c12` [Example 215, 4-{8-amino-3-[(6R,8aS)-3-oxooctahydroindolizin-6-yl]-5-(trifluoromethyl)imidazo[1,5-a]pyrazin-1-yl}-3-ethoxy-N-[1-methyl-5-(trifluoromethyl)-1H-pyrazol-3-yl]benzamide], the IC50 came out at 4 nM in assay [1] and 2470 nM with HeLa cells.

In the case of `CC(F)(F)Oc1cc(C(=O)Nc2cc(C(F)(F)F)ccn2)ccc1-c1nc([C@@H]2CC[C@H]3CCC(=O)N3C2)n2c(Cl)cnc(N)c12` [Example 216, 4-{8-amino-5-chloro-3-[(6R,8aS)-3-oxooctahydroindolizin-6-yl]imidazo[1,5-a]pyrazin-1-yl}-3-(1,1-difluoroethoxy)-N-[4-(trifluoromethyl)pyridin-2-yl]benzamide], the values for the IC50 (in assay [1]; in the assay with HeLa cells) were 6.6 nM and 895 nM, respectively.

For the compound `COc1cc(C(=O)Nc2cc(C(F)(F)F)ccn2)cc(F)c1-c1nc([C@@H]2CC[C@H]3CCC(=O)N3C2)n2c(Cl)cnc(N)c12` [Example 217, 4-{8-amino-5-chloro-3-[(6R,8aS)-3-oxooctahydroindolizin-6-yl]imidazo[1,5-a]pyrazin-1-yl}-3-fluoro-5-methoxy-N-[4-(trifluoromethyl)pyridin-2-yl]benzamide], the half-maximal inhibitory concentration (IC50) turned out to be 0.17 nM in assay [1] and 714 nM with HeLa cells.

As to `COc1cc(C(=O)Nc2cc(C(F)(F)F)ccn2)c(Cl)cc1-c1nc([C@@H]2CC[C@H]3CCC(=O)N3C2)n2c(Cl)cnc(N)c12` [Example 218, 4-{8-amino-5-chloro-3-[(6R,8aS)-3-oxooctahydroindolizin-6-yl]imidazo[1,5-a]pyrazin-1-yl}-2-chloro-5-methoxy-N-[4-(trifluoromethyl)pyridin-2-yl]benzamide], the IC50 in assay [1] was 1.8 nM; in the assay with HeLa cells, 4850 nM.

Regarding `COc1cc(C(=O)Nc2cc(C(F)(F)F)ccn2)cc(F)c1-c1nc([C@@H]2CC[C@H]3CC(C)(C)C(=O)N3C2)n2ccnc(N)c12` [Example 219, 4-{8-amino-3-[(6R,8aS)-2,2-dimethyl-3-oxooctahydroindolizin-6-yl]imidazo[1,5-a]pyrazin-1-yl}-3-fluoro-5-methoxy-N-[4-(trifluoromethyl)pyridin-2-yl]benzamide], the results for the IC50 (in assay [1]; in the assay on HeLa cells) were 0.28 nM and 726 nM, respectively.

With `COc1cc(C(=O)Nc2cc(C(F)(F)F)ccn2)cc(F)c1-c1nc([C@@H]2CC[C@H]3CCC(=O)N3C2)n2c(F)cnc(N)c12` [Example 220, 4-{8-amino-5-fluoro-3-[(6R,8aS)-3-oxooctahydroindolizin-6-yl]imidazo[1,5-a]pyrazin-1-yl}-3-fluoro-5-methoxy-N-[4-(trifluoromethyl)pyridin-2-yl]benzamide], the IC50 in assay [1] amounted to 0.4 nM; with HeLa cells it was 1520 nM.

For the origin of these results see patent US20140206681A1, “BTK INHIBITORS” (priority 2013, published 2014).
